# The source made the active and inactive calls. The rule behind the calls is not given here.
# Experiments:
# [1] = tested on: Mycobacterium tuberculosis; assay: Antimycobacterial activity against rifampicin resistant Mycobacterium tuberculosis H37Rv ATCC 35838 at 2 ug/ml; assay type: functional, organism-based
# [2] = tested on: Mycobacterium tuberculosis; assay: Antimycobacterial activity against rifampicin resistant Mycobacterium tuberculosis H37Rv ATCC 35838 at 1 ug/ml; assay type: functional
# [3] = tested on: Mycobacterium tuberculosis; assay: Antimycobacterial activity against rifampicin resistant Mycobacterium tuberculosis H37Rv ATCC 35838; assay type: functional
compound,measurement,setting,value
CO[C@H]1/C=C/O[C@@]2(C)Oc3c(C)c(O)c4c(O)c(c(/C=N/N5CCN(C)CC5)c(O)c4c3C2=O)NC(=O)/C(C)=C\C=C\[C@H](C)[C@H](O)[C@@H](C)[C@@H](O)[C@@H](C)[C@H](OC(C)=O)[C@@H]1C [RIFAMPIN],Activity,[1],inactive
NNC(=O)c1ccncc1 [ISONIAZID],inhibition at 1 µg/mL,[2],100%
CCCCCC#Cc1c[nH]c(=O)nc1N,MIC50,[3],12.5 µg/mL

# Source: ChEMBL document CHEMBL3784999, “Investigation of 4-amino-5-alkynylpyrimidine-2(1H)-ones as anti-mycobacterial agents” (Bioorg Med Chem, 2016)
